Laboratory results: US20080249072A1, “Use of Low Dose Chemically Modified Tetracylines to Reduce Inflammatory Mediators” (priority 2005, published 2008)

Columns and labels:
Format in all cases: cell-based
[1] = test system: Tumor Necrosis Factor-α (TNF-α); experiment: TNF-α production by human monocytes/macrophages stimulated by CRP/Oxid. LDL complex (ELISA)
Procedure: (§1) Experiments were conducted to compare the efficacy of two tetracycline compounds, doxycycline and CMT-3, on reducing the production of inflammatory mediators, TNF-α, IL-6 and MCP-1 produced by monocytes/macrophages. Doxycycline is a well known tetracycline antibiotic. CMT-3 is a non-antibacterial 4-dedimethylamino derivative of sancycline. See above. The experiments utilized a cell culture stimulated by biologic factors that cause inflammation, such as the inflammation seen in, for example, coronary and cerebro-vascular disease. Units of human blood were obtained and peripheral blood monocytes were separated by Ficoll-Hypaque gradient centrifugation. Viable human monocytes/macrophages were incubated in cell culture under standard sterile conditions on plastic in RPMI media at 37° C. for 18 hours. The monocytes/macrophages were incubated under the following experimental conditions: • (i) cells alone; • (ii) cells stimulated by c-reactive protein (CRP)/Oxidized LDL cholesterol complex (CRP/Oxid. LDL complex), no tetracycline present; • (iii) cells stimulated by CRP/Oxid. LDL complex with doxycycline at concentrations of 0.7 μg/ml, 5.0 μg/ml and 10.0 μg/ml; and. • (iv) cells stimulated by CRP/Oxid. LDL complex with CMT-3 at concentrations of 0.5 μg/ml, 1.5 μg/ml and 5.0 μg/ml. CRP/Oxid. LDL complex stimulates monocytes/macrophages to secrete excessive levels of cytokines (e.g. IL-1, IL-6, TNF-α, and MCP-1). Excessive levels of cytokines result in the rupture of atheroscleromatus plaques lining coronary and cerebral arteries causing thrombosis, heart attack and stroke. At the end of an 18 hour incubation, the conditioned media were collected and analyzed by ELISA for inflammatory mediators IL-6, TNF-α and MCP-1. The results are described in examples 1-3.

Interleukin-6 (IL-6) = experiment: IL-6 production by human monocytes/macrophages stimulated by CRP/Oxid. LDL complex (ELISA)
Procedure: as §1

[2] = test system: Macrophage Chemotactic Protein-1 (MCP-1); experiment: MCP-1 production by human monocytes/macrophages stimulated by CRP/Oxid. LDL complex (ELISA)
Procedure: as §1

[3] = all three concentrations tested (0.5, 1.5 and 5.0 μg/ml)
[4] = highest concentration, 5.0 μg/ml

Compound | TNF-α production at 1.5 μg/ml higher than at 0.5 μg/ml ([1]; 1.5 μg/ml versus 0.5 μg/ml) | effect on TNF-α production [1, 3] | effectiveness in reducing TNF-α among concentrations tested [1, 4] | IL-6 production at 1.5 μg/ml higher than at 0.5 μg/ml (Interleukin-6 (IL-6); 1.5 μg/ml versus 0.5 μg/ml) [%] | effect on IL-6 production (Interleukin-6 (IL-6); [3]) | effectiveness in reducing IL-6 among concentrations tested (Interleukin-6 (IL-6); [4]) | MCP-1 production at 1.5 μg/ml higher than at 0.5 μg/ml ([2]; 1.5 μg/ml versus 0.5 μg/ml) [%] | effectiveness in reducing MCP-1 among concentrations tested [2, 4] | reduction of TNF-α production ([1]; 10.0 μg/ml, 18 hour incubation) | inhibition at 0.7 µg/mL ([1]; Homo sapiens, 0.7 μg/ml, 18 hour incubation) [%] | inhibition at 5 µg/mL ([1]; Homo sapiens, 5.0 μg/ml, 18 hour incubation) [%] | inhibition of MCP-1 production ([2]; 0.5 μg/ml) | inhibition of MCP-1 production ([2]; 1.5 μg/ml) | inhibition at 5 µg/mL ([2]; Homo sapiens, Macrophage, 5.0 μg/ml, read-out: inhibition of production (printed TNF-α, in MCP-1 example)) [%]
NC(=O)C1=C(O)C[C@@H]2C[C@@H]3Cc4cccc(O)c4C(=O)C3=C(O)[C@]2(O)C1=O [CMT-3, 6-demethyl-6-deoxy-4-dedimethylaminotetracycline] | about 50% | reduced TNF-α production | most effective | 43 | reduced IL-6 production | most effective | 16 | most effective | – | – | – | – | – | –
C[C@H]1c2cccc(O)c2C(=O)C2=C(O)[C@]3(O)C(=O)C(C(N)=O)=C(O)[C@@H](N(C)C)[C@@H]3[C@@H](O)[C@@H]21 [doxycycline, reference compound] | – | – | – | – | – | – | – | – | about 94% | ~14 | ~37 | did not inhibit | did not inhibit | ~68
